Test results published in patent US12606561B2, “Substituted pyrazolo[1,5-a][1,3,5]triazines as CDK inhibitors” (QURIENT CO., LTD., priority 2018, dated 2026).

Assays:
[1] = target: T1, CDK5/p25 (Homo sapiens, UniProt Q00535); assay: Enzymatic assay for CDK5 (LANCE Ultra kinase assay, FRET based); assay type: biochemical; conditions: ATP at Km
T1 construct: purchased Invitrogen PR8543B
In short: (§1)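 Compounds tested as 8 doses in 4-fold steps against CDK2/Cyclin A ([…]) or CDK5/p25 ([…]), with ATP at its Km and 68 nM ULight-MBP substrate. After 60 min at 23° C., EDTA plus Eu-labelled anti-phospho-MBP added; TR-FRET (615/665 nm) read after another 60 min.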

[2] = target: T2, CDK7/Cyclin H/MNAT1 (Homo sapiens, UniProt P50613); assay: Enzymatic assay for CDK7 (LANCE Ultra kinase assay, FRET based); assay type: biochemical; conditions: for IC50: ATP at Km
T2 construct: purchased Invitrogen PR6749B
In short: (§2)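 Kinase activity of each purified CDK/cyclin complex was followed in a FRET format where a Europium anti-phospho-antibody recognises phosphorylated ULight-labeled peptide. ATP was held at its Km.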

[3] = target: T3, CDK1/Cyclin B (Homo sapiens, UniProt P06493); assay: Enzymatic assay for CDK1 (LANCE Ultra kinase assay, FRET based); assay type: biochemical; conditions: ATP at Km; read-out: CDK1 enzymatic activity IC50
T3 construct: purchased Invitrogen PR4768C
In short: as §2

[4] = tested on: OVCAR-3; assay: OVCAR-3 viability assay (CellTiter-Glo, 72 hours); assay type: cell-based; conditions: Homo sapiens; OVCAR-3 cells
Method: (§3) Human […] cell line, MV4-11_(ATCC, Cat #CRL-9591), NSCLC (Non-small cell lung cancer) cell line H460 (ATCC, Cat #HTB-177), A2780 (ECACC, Cat #93112519) and OVCAR-3(ATCC, Cat #HTB-161) were obtained from ATCC. Cells were grown in RPMI-1640 media (Invitrogen, Cat #22400-089) supplemented with 10% FBS (Invitrogen, Cat #10099141) and 1% penicillin/streptomycin (Invitrogen, Cat #15070063) and cultured at 37° C., 5% CO2 in a humidified chamber. All cell lines were routinely tested for mycoplasma.
(§4) To effect of the CDK7 inhibitor to inhibit the growth of target cancer cells, viability assay were conducted a 72 hour time period. Briefly, the candidate cell line was plated in 96 well plate at the following density of cells respectively. 1×10^4 cells/well for MV4-11, 5×10^3 for H460 and OVCAR-3, and 1×10^3 for A2780. After 24 hours, the cells were treated with various concentrations of the compound (ranging from 0.0015 uM to 10 uM). DMSO solvent without compound served as a control and final DMSO concentration lest than 0.1%. After 72 hours of incubation at 37° C., 5% CO2 incubator, cells were analyzed for the viability using the CellTiter-Glo Luminescent Cell Viability Assay (Promega, Cat #G7570). All viability assays were performed in duplicate and Luminescence was read using an Envision (Perkin Elmer, USA). Data was analyzed using XLfit software.

[5] = tested on: A2780; assay: A2780 viability assay (CellTiter-Glo, 72 hours); assay type: cell-based; conditions: Homo sapiens; A2780 cells
Method: as §3, §4

[6] = target: T4, CDK2/Cyclin A (Homo sapiens, UniProt P24941); assay: Enzymatic assay for CDK2 (LANCE Ultra kinase assay, FRET based); assay type: biochemical; conditions: ATP at Km
T4 construct: purchased Invitrogen PV6290
In short: as §1

T2 sequence (P50613 whole entry): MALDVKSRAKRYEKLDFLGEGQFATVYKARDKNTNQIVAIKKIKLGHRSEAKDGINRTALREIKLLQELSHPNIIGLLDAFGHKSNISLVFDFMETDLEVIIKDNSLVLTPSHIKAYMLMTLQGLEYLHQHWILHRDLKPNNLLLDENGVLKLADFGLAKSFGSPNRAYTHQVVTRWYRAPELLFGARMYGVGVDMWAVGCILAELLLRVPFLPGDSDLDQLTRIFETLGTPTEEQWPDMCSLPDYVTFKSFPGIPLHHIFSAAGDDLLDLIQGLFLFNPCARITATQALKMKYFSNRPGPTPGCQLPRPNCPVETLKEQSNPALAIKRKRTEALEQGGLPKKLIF
T2 sequence (P51946 whole entry partner): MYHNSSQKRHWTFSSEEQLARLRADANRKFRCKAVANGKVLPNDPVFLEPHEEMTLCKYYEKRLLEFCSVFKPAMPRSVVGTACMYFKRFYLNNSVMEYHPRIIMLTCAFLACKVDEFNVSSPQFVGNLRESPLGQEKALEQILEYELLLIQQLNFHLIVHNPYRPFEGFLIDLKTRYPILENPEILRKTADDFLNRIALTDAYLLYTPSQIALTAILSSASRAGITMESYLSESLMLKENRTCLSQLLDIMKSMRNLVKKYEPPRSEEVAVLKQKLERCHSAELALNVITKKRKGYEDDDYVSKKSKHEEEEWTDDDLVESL
T2 sequence (P51948 whole entry partner): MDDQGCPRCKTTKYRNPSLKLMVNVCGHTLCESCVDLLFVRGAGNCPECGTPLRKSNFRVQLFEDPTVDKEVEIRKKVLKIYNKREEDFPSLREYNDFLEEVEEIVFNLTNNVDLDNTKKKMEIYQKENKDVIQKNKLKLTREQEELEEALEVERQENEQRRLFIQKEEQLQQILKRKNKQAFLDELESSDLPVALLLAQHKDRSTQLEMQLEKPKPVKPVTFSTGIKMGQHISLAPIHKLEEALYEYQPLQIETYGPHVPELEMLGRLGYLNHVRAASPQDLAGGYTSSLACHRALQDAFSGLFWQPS
T3 sequence (P06493 whole entry): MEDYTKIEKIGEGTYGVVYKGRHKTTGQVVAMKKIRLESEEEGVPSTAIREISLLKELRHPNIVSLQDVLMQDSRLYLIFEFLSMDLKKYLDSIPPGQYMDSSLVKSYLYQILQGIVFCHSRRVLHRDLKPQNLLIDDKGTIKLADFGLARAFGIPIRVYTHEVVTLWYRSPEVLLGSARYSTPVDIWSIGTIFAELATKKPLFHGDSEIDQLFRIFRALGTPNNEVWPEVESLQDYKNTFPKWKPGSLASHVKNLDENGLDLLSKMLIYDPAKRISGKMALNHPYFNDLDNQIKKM
T3 sequence (P14635 whole entry partner): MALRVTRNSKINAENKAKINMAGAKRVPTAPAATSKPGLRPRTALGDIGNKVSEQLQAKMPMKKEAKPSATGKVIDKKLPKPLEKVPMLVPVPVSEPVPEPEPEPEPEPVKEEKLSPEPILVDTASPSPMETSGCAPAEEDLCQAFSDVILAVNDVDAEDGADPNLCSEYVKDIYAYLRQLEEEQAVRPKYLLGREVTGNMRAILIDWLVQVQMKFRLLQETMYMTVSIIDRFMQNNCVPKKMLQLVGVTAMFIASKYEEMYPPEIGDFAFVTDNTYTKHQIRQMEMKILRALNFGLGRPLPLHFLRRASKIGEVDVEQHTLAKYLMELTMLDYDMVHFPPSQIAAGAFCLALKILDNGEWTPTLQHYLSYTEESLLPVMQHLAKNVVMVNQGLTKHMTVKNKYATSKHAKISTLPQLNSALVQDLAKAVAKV
T1 sequence (Q00535 whole entry): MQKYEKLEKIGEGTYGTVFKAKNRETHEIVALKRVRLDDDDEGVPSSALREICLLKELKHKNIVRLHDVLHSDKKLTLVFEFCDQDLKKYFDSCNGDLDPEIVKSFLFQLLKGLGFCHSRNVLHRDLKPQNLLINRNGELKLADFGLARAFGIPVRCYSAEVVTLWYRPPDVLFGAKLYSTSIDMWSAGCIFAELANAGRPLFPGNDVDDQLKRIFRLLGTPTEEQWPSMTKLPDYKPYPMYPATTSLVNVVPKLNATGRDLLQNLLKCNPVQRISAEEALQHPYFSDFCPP
T1 sequence (Q15078 99-307 partner limits assumed): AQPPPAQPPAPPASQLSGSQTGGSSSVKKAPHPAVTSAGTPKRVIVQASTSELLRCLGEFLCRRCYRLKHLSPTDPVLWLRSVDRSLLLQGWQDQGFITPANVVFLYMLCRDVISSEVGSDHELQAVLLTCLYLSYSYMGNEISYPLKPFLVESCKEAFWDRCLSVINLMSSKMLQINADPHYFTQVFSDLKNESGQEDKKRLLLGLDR

| IC50 [1] | IC50 [2] | CDK1/CDK7: Selectivity of CDK7 inhibition over CDK1 inhibition [2] | CDK2/CDK7: Selectivity of CDK7 inhibition over CDK2 inhibition [2] | CDK5/CDK7: Selectivity of CDK7 inhibition over CDK5 inhibition [2] | IC50 [3] | IC50 [4] | IC50 [5] | IC50 [6] | SMILES |
| --- | --- | --- | --- | --- | --- | --- | --- | --- | --- |
| > 1000 nM | < 100 nM | A (A indicates [fold] > 500) | A (A indicates [fold] > 500) | A (A indicates [fold] > 500) | > 1000 nM | < 1000 nM | < 1000 nM | > 1000 nM | C=C(F)C(=O)Nc1ccc2c(-c3ccccc3CNc3nc(NCC4CNCCO4)nc4c(C(C)C)cnn34)nccc2c1 (racemic) [Compound 80] |
| > 1000 nM | < 100 nM | A (A indicates [fold] > 500) | A (A indicates [fold] > 500) | A (A indicates [fold] > 500) | > 1000 nM | < 1000 nM | < 1000 nM | > 1000 nM | C=C(F)C(=O)Nc1ccc2c(-c3ccccc3CNc3nc(-c4cccc(OC5CCNC5)c4)nc4c(C(C)C)cnn34)nccc2c1 (racemic) [Compound 87] |
| > 1000 nM | 100 to 1000 nM | B (B indicates 50 < [fold] ≤ 500) | B (B indicates 50 < [fold] ≤ 500) | B (B indicates 50 < [fold] ≤ 500) | > 1000 nM | < 1000 nM | < 1000 nM | > 1000 nM | C=C(F)C(=O)Nc1ccc2c(-c3ccccc3CNc3nc(NC4CCC(OC)C4)nc4c(C(C)C)cnn34)nccc2c1 (racemic) [Compound 98] |
| > 1000 nM | < 100 nM | A (A indicates [fold] > 500) | A (A indicates [fold] > 500) | A (A indicates [fold] > 500) | > 1000 nM |  | < 1000 nM | > 1000 nM | C=CC(=O)N1CCc2c(ccnc2-c2ccccc2CNc2nc(OC3CCC(C)(C)NC3)nc3c(C(C)C)cnn23)C1 (centres unmarked) [Compound 203] |
| > 1000 nM | < 100 nM | A (A indicates [fold] > 500) | A (A indicates [fold] > 500) | A (A indicates [fold] > 500) | > 1000 nM |  | < 1000 nM | > 1000 nM | CC(C)c1cnn2c(NCc3ccccc3-c3nccc4cc(NC(=O)/C=C/CN(C)C)ccc34)cc(C(F)(F)F)nc12 [Compound 204] |
| > 1000 nM | < 100 nM | B (B indicates 50 < [fold] ≤ 500) | B (B indicates 50 < [fold] ≤ 500) | B (B indicates 50 < [fold] ≤ 500) | > 1000 nM |  | < 1000 nM | > 1000 nM | C=C(Br)C(=O)Nc1ccc2c(-c3ccccc3CNc3nc(NC[C@H]4CCNC[C@@H]4O)nc4c(C(C)C)cnn34)nccc2c1 [Compound 205] |
| > 1000 nM | < 100 nM | A (A indicates [fold] > 500) | A (A indicates [fold] > 500) | A (A indicates [fold] > 500) | > 1000 nM |  | < 1000 nM | > 1000 nM | C=C(Cl)C(=O)Nc1ccc2c(-c3ccccc3CNc3nc(NC[C@H]4CCNC[C@@H]4O)nc4c(C(C)C)cnn34)nccc2c1 [Compound 206] |
| > 1000 nM | 100 to 1000 nM | B (B indicates 50 < [fold] ≤ 500) | B (B indicates 50 < [fold] ≤ 500) | B (B indicates 50 < [fold] ≤ 500) | > 1000 nM |  | < 1000 nM | > 1000 nM | C=C(C)C(=O)Nc1ccc2c(-c3ccccc3CNc3nc(Nc4cccnc4)nc4c(C(C)C)cnn34)nccc2c1 [Compound 207] |
| > 1000 nM | 100 to 1000 nM | B (B indicates 50 < [fold] ≤ 500) | B (B indicates 50 < [fold] ≤ 500) | B (B indicates 50 < [fold] ≤ 500) | > 1000 nM |  | 1000 to 10000 nM | > 1000 nM | C=C(C)C(=O)Nc1ccc2c(-c3ccccc3CNc3cc(C(F)(F)F)nc4c(C(C)C)cnn34)nccc2c1 [Compound 208] |
| > 1000 nM | < 100 nM | A (A indicates [fold] > 500) | A (A indicates [fold] > 500) | A (A indicates [fold] > 500) | > 1000 nM |  | < 1000 nM | > 1000 nM | C=C(Cl)C(=O)Nc1ccc2c(-c3ccccc3CNc3nc(N[C@H]4CC[C@H](OC)CC4)nc4c(C(C)C)cnn34)nccc2c1 [Compound 209] |
| > 1000 nM | < 100 nM | B (B indicates 50 < [fold] ≤ 500) | B (B indicates 50 < [fold] ≤ 500) | B (B indicates 50 < [fold] ≤ 500) | > 1000 nM |  | < 1000 nM | > 1000 nM | C=CC(=O)Nc1ccc2c(-c3ccccc3CNc3nc(N4CCN(CC(F)(F)F)CC4)nc4c(C(C)C)cnn34)nccc2c1 [Compound 210] |
| > 1000 nM | < 100 nM | A (A indicates [fold] > 500) | A (A indicates [fold] > 500) | A (A indicates [fold] > 500) | > 1000 nM |  | < 1000 nM | > 1000 nM | C=CC(=O)Nc1ccc2c(-c3ccccc3CNc3nc(N4CCNC(C(F)(F)F)C4)nc4c(C(C)C)cnn34)nccc2c1 (centres unmarked) [Compound 211] |
| > 1000 nM | < 100 nM | A (A indicates [fold] > 500) | A (A indicates [fold] > 500) | A (A indicates [fold] > 500) | > 1000 nM |  | < 1000 nM | > 1000 nM | C=CC(=O)Nc1ccc2c(-c3ccccc3CNc3nc(N4CCc5ncccc5C4)nc4c(C(C)C)cnn34)nccc2c1 [Compound 212] |
| > 1000 nM | > 1000 nM | C (C indicates [fold] ≤ 50) | C (C indicates [fold] ≤ 50) | C (C indicates [fold] ≤ 50) | > 1000 nM |  | 1000 to 10000 nM | > 1000 nM | C=CC(=O)Nc1ccc2c(-c3cccc(C(F)(F)F)c3CNc3nc(Nc4cccnc4)nc4c(C(C)C)cnn34)nccc2c1 [Compound 213] |
| > 1000 nM | < 100 nM | A (A indicates [fold] > 500) | A (A indicates [fold] > 500) | A (A indicates [fold] > 500) | > 1000 nM |  | < 1000 nM | > 1000 nM | CC(C)c1cnn2c(NCc3ccccc3-c3nccc4cc(NC(=O)/C=C/CN(C)C)ccc34)cc(N3CCNC(C(F)(F)F)C3)nc12 (centres unmarked) [Compound 214] |
| > 1000 nM | < 100 nM | A (A indicates [fold] > 500) | A (A indicates [fold] > 500) | A (A indicates [fold] > 500) | > 1000 nM |  | < 1000 nM | > 1000 nM | C=CC(=O)Nc1ccc2c(-c3ccccc3CNc3nc(NC4CCC(C)(C)NC4)nc4c(C(F)(F)F)cnn34)nccc2c1 (centres unmarked) [Compound 215] |
